Laboratory results published in patent US7582649B2, “Hydroxy alkyl substituted 1,3,8-triazaspiro[4.5]decan-4-one derivatives useful for the treatment of ORL-1 receptor mediated disorders” (Janssen Pharmaceutica, NV, priority 2002, dated 2009).
pIC50: −log10 of the molar value. Several values for one entry are separate records, joined by “and”; a condition that tells them apart may be missing. Identical values can stand only once. Like-named read-outs stand apart in the source and are kept apart here.

Assays:
kappa opioid receptor = kappa opioid receptor (Homo sapiens, UniProt P41145); test: Filtration binding assay: kappa opioid receptor
Chain of kappa opioid receptor (P41145 whole entry): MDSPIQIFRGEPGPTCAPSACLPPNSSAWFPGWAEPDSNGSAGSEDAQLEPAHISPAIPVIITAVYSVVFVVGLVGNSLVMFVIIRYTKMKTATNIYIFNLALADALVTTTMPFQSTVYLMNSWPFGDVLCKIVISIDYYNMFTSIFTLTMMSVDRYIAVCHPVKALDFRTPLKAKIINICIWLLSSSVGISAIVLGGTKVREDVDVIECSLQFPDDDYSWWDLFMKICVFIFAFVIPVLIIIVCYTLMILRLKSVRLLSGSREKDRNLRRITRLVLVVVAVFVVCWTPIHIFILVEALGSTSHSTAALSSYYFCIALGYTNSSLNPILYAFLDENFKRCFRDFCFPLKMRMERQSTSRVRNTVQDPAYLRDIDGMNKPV

Long-Evans Hooded rats [1] = settings: male, rat, in vivo, po
Long-Evans Hooded rats [2] = test: Stress induced hyperthermia (SIH) in vivo assay, rectal temperature; design: species or system rat
Method: (§1) Male Long-Evans Hooded rats weighing 180 to 200 grams at the time of purchase were obtained from Charles River Laboratories (Raleigh, N.C.). Upon arrival, the animals were group housed four per cage in quarantine for 5 days in wire-mesh cages at an ambient temperature of 21 to 23° C. with an automated 12/12 hour light/dark cycle and ad libitum access to water and a commercial rodent chow. The rats were then transferred to a general housing room for a one-week acclimation with housing and environmental conditions, and 12/12 hour light/dark cycle conditions. Animals were fasted overnight (18 hours) prior to experiment.
[…] One hour after dosing, baseline rectal temperatures were recorded for each rat. Rats were then immediately isolated in shoebox cages with ALPHA-DRY bedding. Rectal temperatures were then recorded at 15 min, 30 min, and 45 min after isolation (i.e., 1 hr 15 min, 1 hr 30 min, and 1 hr 45 minutes after test compound or vehicle administration). All experiments were conducted during the light cycle. After completion of the behavioral portion of the study, each animal was killed via decapitation using a guillotine and trunk blood was collected in 5 mL vacutainer tube containing EDTA and placed on ice. The samples were then centrifuged at 3800 RPM for 10 minutes and plasma was removed and placed on dry ice in an Eppendorff sample tube. Plasma samples were stored at −80° C. and later used for determining ACTH, corticosterone, and glucose levels. Plasma samples were outsourced to Anilytics, Inc. for determination of plasma levels of ACTH, coricosterone, and glucose. A Mann-Whitney U t-test (one-tailed) was used for statistical analysis of behavioral data and an unpaired t-test (one-tailed) was used for analysis of plasma ACTH, corticosterone, and glucose levels.
Compound #438 was suspended in an aqueous vehicle comprised of 0.5% (w/v) methylcellulose (15 centipoises) solution.

Long-Evans Hooded rats [3] = test: Plasma stress hormone levels (ACTH, corticosterone, glucose) after SIH; format: in vivo, rat; settings: p.o.
Method: as §1
On the day of experiment, group-housed (4/group) Long-Evans Hooded rats were divided into various treatment groups (N=8 to 32) and test compound at 0.03-3.0 mg/kg or vehicle was administered orally (p.o.) by gavage in a dose volume equivalent to 5 mL/kg. One hour after dosing, baseline rectal temperatures were recorded for each rat. Rats were then immediately isolated in shoebox cages with ALPHA-DRY bedding. Rectal temperatures were then recorded at 15 min, 30 min, and 45 min after isolation (i.e., 1 hr 15 min, 1 hr 30 min, and 1 hr 45 minutes after test compound or vehicle administration). All experiments were conducted during the light cycle. […]

Long-Evans Hooded rats [4] = settings: rat, in vivo, po; for Total Entries (EPM), % Change / Total Entries (EPM), Mean: male, Long-Evans Hooded
mu opioid receptor = mu opioid receptor (Homo sapiens, UniProt P35372); test: Filtration binding assay: mu opioid receptor
Chain of mu opioid receptor (P35372 whole entry): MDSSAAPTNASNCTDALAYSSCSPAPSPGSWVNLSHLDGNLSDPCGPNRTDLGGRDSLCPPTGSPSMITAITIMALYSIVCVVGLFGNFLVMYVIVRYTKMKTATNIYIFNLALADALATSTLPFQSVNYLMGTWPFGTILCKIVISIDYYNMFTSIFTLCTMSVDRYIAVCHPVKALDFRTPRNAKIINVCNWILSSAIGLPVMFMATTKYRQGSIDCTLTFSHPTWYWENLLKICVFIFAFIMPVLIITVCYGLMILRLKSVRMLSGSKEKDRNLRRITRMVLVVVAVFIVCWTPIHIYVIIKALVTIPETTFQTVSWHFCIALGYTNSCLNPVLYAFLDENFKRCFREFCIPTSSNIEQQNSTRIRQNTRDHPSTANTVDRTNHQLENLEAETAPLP

Structure (SMILES): Cc1cccc2cccc(CN3CCC4(CC3)C(=O)N(C[C@H](O)CN)CN4c3ccc(F)cc3)c12 [Compound #438, 3-(3-Amino-2-(R)-hydroxy-propyl)-1-(4-fluoro-phenyl)-8-(8-methyl-naphthalen-1-ylmethyl)-1,3,8-triaza-spiro[4.5]decan-4-one]
- pIC50 (kappa opioid receptor): < 5.00
- Horizontal Activity (SMA), % Change (Long-Evans Hooded rats [1]; 0.03 mg/kg): 9.9%
- Horizontal Activity (SMA), Mean (Long-Evans Hooded rats [1]; 0.03 mg/kg): 3565
- Vertical Movement (SMA), % Change (Long-Evans Hooded rats [1]; 0.03 mg/kg): 12.5%
- Vertical Movement (SMA), Mean (Long-Evans Hooded rats [1]; 0.03 mg/kg): 54.8
- Horizontal Activity (SMA), % Change (Long-Evans Hooded rats [1]; 10 mg/kg): −4.0%
- Horizontal Activity (SMA), Mean (Long-Evans Hooded rats [1]; 10 mg/kg): 3115
- Vertical Movement (SMA), % Change (Long-Evans Hooded rats [1]; 10 mg/kg): 11.9%
- Vertical Movement (SMA), Mean (Long-Evans Hooded rats [1]; 10 mg/kg): 54.5
- Horizontal Activity (SMA), % Change (Long-Evans Hooded rats [1]; 30 mg/kg): −15.8%
- Horizontal Activity (SMA), Mean (Long-Evans Hooded rats [1]; 30 mg/kg): 2730
- Vertical Movement (SMA), % Change (Long-Evans Hooded rats [1]; 30 mg/kg): −7.0%
- Vertical Movement (SMA), Mean (Long-Evans Hooded rats [1]; 30 mg/kg): 45.3
- Rectal Temp., Mean (Long-Evans Hooded rats [2]; 0.03 mg/kg p.o., 0 (Basal), 1 hr after dosing): 37.5 °C
- Rectal Temp., Mean (Long-Evans Hooded rats [2]; 0.03 mg/kg p.o., 15 min after isolation): 38.7 °C
- Rectal Temp., Mean (Long-Evans Hooded rats [2]; 0.03 mg/kg p.o., 30 min after isolation): 38.6 °C
- Rectal Temp., Mean (Long-Evans Hooded rats [2]; 0.03 mg/kg p.o., 45 min after isolation): 38.4 °C
- Rectal Temp., Mean (Long-Evans Hooded rats [2]; 0.1 mg/kg p.o., 0 (Basal), 1 hr after dosing): 37.2 °C
- Rectal Temp., Mean (Long-Evans Hooded rats [2]; 0.1 mg/kg p.o., 15 min after isolation): 38.4 °C
- Rectal Temp., Mean (Long-Evans Hooded rats [2]; 0.1 mg/kg p.o., 30 min after isolation): 38.5 °C
- Rectal Temp., Mean (Long-Evans Hooded rats [2]; 0.1 mg/kg p.o., 45 min after isolation): 38.5 °C
- Rectal Temp., Mean (Long-Evans Hooded rats [2]; 0.3 mg/kg p.o., 0 (Basal), 1 hr after dosing): 37.4 °C
- Rectal Temp., Mean (Long-Evans Hooded rats [2]; 0.3 mg/kg p.o., 15 min after isolation): 38.4 °C
- Rectal Temp., Mean (Long-Evans Hooded rats [2]; 0.3 mg/kg p.o., 30 min after isolation): 38.5 °C
- Rectal Temp., Mean (Long-Evans Hooded rats [2]; 0.3 mg/kg p.o., 45 min after isolation): 38.3 °C
- Rectal Temp., Mean (Long-Evans Hooded rats [2]; 1.0 mg/kg p.o., 0 (Basal), 1 hr after dosing): 37.1 °C
- Rectal Temp., Mean (Long-Evans Hooded rats [2]; 1.0 mg/kg p.o., 15 min after isolation): 38.4 °C
- Rectal Temp., Mean (Long-Evans Hooded rats [2]; 1.0 mg/kg p.o., 30 min after isolation): 38.5 °C
- Rectal Temp., Mean (Long-Evans Hooded rats [2]; 1.0 mg/kg p.o., 45 min after isolation): 38.2 °C
- Rectal Temp., Mean (Long-Evans Hooded rats [2]; 3.0 mg/kg p.o., 0 (Basal), 1 hr after dosing): 37.0 °C
- Rectal Temp., Mean (Long-Evans Hooded rats [2]; 3.0 mg/kg p.o., 15 min after isolation): 38.2 °C
- Rectal Temp., Mean (Long-Evans Hooded rats [2]; 3.0 mg/kg p.o., 30 min after isolation): 38.4 °C
- Rectal Temp., Mean (Long-Evans Hooded rats [2]; 3.0 mg/kg p.o., 45 min after isolation): 38.2 °C
- rectal temperature in the SIH model (Long-Evans Hooded rats [2]; p.o., at 0.03 mg/kg, 0.01 mg/kg, 0.3 mg/kg, 1.0 mg/kg and 3.0 mg/kg): attenuation of rectal temperature
- changes in the plasma levels of corticosterone (Long-Evans Hooded rats [3]): not statistically significant
- reduction in plasma ACTH levels (Long-Evans Hooded rats [3]; 0.3 mg/kg, P=0.0170): 25%
- Total Entries (EPM), % Change (Long-Evans Hooded rats [4]; 0.03 mg/kg): 1.0%
- Total Entries (EPM), Mean (Long-Evans Hooded rats [4]; 0.03 mg/kg): 102.0
- Total Entries (EPM), % Change (Long-Evans Hooded rats [4]; 10 mg/kg): −6.4%
- Total Entries (EPM), Mean (Long-Evans Hooded rats [4]; 10 mg/kg): 94.5
- Total Entries (EPM), % Change (Long-Evans Hooded rats [4]; 30 mg/kg): −14.6%
- Total Entries (EPM), Mean (Long-Evans Hooded rats [4]; 30 mg/kg): 86.3
- % Open Arm Entries (EPM), % Change (Long-Evans Hooded rats [4]; 0.03 mg/kg): −11.1%
- % Open Arm Entries (EPM), Mean (Long-Evans Hooded rats [4]; 0.03 mg/kg): 5.14%
- % Open Arm Time (EPM), % Change (Long-Evans Hooded rats [4]; 0.03 mg/kg): −18.8%
- % Open Arm Time (EPM), Mean (Long-Evans Hooded rats [4]; 0.03 mg/kg): 6.67%
- % Open Arm Entries (EPM), % Change (Long-Evans Hooded rats [4]; 0.1 mg/kg): 34.4% and 40.4%
- % Open Arm Entries (EPM), Mean (Long-Evans Hooded rats [4]; 0.1 mg/kg): 7.77% and 9.17%
- % Open Arm Time (EPM), Mean (Long-Evans Hooded rats [4]; 0.1 mg/kg): 12.1% and 17.2%
- % Open Arm Entries (EPM), % Change (Long-Evans Hooded rats [4]; 0.3 mg/kg): 54.8% and 80.7%
- % Open Arm Entries (EPM), Mean (Long-Evans Hooded rats [4]; 0.3 mg/kg): 8.95% and 11.8%
- % Open Arm Time (EPM), Mean (Long-Evans Hooded rats [4]; 0.3 mg/kg): 13.8% and 21.8%
- % Open Arm Entries (EPM), % Change (Long-Evans Hooded rats [4]; 1 mg/kg): 72.1% and 46.6%
- % Open Arm Entries (EPM), Mean (Long-Evans Hooded rats [4]; 1 mg/kg): 9.95% and 9.57%
- % Open Arm Time (EPM), % Change (Long-Evans Hooded rats [4]; 1 mg/kg): 80.3% and 89.7%
- % Open Arm Time (EPM), Mean (Long-Evans Hooded rats [4]; 1 mg/kg): 14.8% and 15.1%
- % Open Arm Entries (EPM), % Change (Long-Evans Hooded rats [4]; 3 mg/kg): 44.3% and 37.8%
- % Open Arm Entries (EPM), Mean (Long-Evans Hooded rats [4]; 3 mg/kg): 8.34% and 9.0%
- % Open Arm Time (EPM), Mean (Long-Evans Hooded rats [4]; 3 mg/kg): 12.4% and 16.9%
- % Open Arm Entries (EPM), % Change (Long-Evans Hooded rats [4]; 10 mg/kg): 11.1%
- % Open Arm Entries (EPM), Mean (Long-Evans Hooded rats [4]; 10 mg/kg): 6.4%
- % Open Arm Time (EPM), % Change (Long-Evans Hooded rats [4]; 10 mg/kg): 0.9%
- % Open Arm Time (EPM), Mean (Long-Evans Hooded rats [4]; 10 mg/kg): 8.14%
- % Open Arm Entries (EPM), % Change (Long-Evans Hooded rats [4]; 30 mg/kg): 15.1%
- % Open Arm Entries (EPM), Mean (Long-Evans Hooded rats [4]; 30 mg/kg): 6.65%
- % Open Arm Time (EPM), % Change (Long-Evans Hooded rats [4]; 30 mg/kg): −60.9%
- % Open Arm Time (EPM), Mean (Long-Evans Hooded rats [4]; 30 mg/kg): 3.21%
- pIC50 (mu opioid receptor): < 5.00
